We go through five compounds from patent publication US7666864B2, “Bicyclic nitroimidazole-substituted phenyl oxazolidinones” (priority 2008, dated 2010).

Values after ≈ are worked out from the molar mass of the structure shown. Where two headings read alike, the source gives them in different places. Where only a bound is given, the exact number is not on record here.

Experiment [1] has as its system Mycobacterium tuberculosis H37Rv. Description: MIC against Mycobacterium tuberculosis H37Rv (method of Gruppo). The experiment is classed as cell-based. The following applies: for MIC: Mycobacterium tuberculosis, H37RV.
For experiment [2], the system named is Staphylococcus aureus ATCC 29213. Briefly: MIC against Staphylococcus aureus ATCC 29213, microbroth dilution (NCCLS). In kind it is cell-based. The following applies: for activity against Staphylococcus aureus ATCC 29213 (in words): Gram-positive species; for MIC: Staphylococcus aureus, ATCC29213, microbroth dilution, read-out: MIC S. aureus ATCC# 29213.
In experiment [3] the test system is S. aureus ATCC# 29213 (Lzd-resistant). Briefly: microbe, parasite or virus in culture. In kind it is cell-based, Staphylococcus aureus. Conditions: for MIC: Staphylococcus aureus, ATCC29213, linezolid-resistant isogenic strain; for MIC against strain resistant to linezolid: linezolid-resistant S. aureus.
In experiment [4] the test system is Mycobacterium tuberculosis H37Rv. Briefly: Anaerobic activity against Mycobacterium tuberculosis H37Rv under Wayne conditions (method of Lenaerts). The experiment is classed as cell-based.

Turning to `CC(=O)NC[C@H]1CN(c2ccc(-c3cnc(O[C@@H]4COc5nc([N+](=O)[O-])cn5C4)nc3)c(F)c2)C(=O)O1` [Example 8, (S,S)—N-(3-{3-Fluoro-4-[2-(2-nitro-6,7-dihydro-5H-imidazo[2,1-b][1,3]oxazin-6-yloxy)-pyrimidin-5-yl]-phenyl}-2-oxo-oxazolidin-5-ylmethyl)-acetamide], the MIC in experiment [1] was 1 mg/L (≈ 1.95 µM). In experiment [2], the “activity against Staphylococcus aureus ATCC 29213 (in words)” value is recorded as “more potent than linezolid” and the MIC is 1 mg/L (≈ 1.95 µM). In experiment [3], the MIC turned out to be 8 mg/L (≈ 15.6 µM) and the “MIC against strain resistant to linezolid” value (“MIC against strain resistant” below) came to 8 micg/mL.
In the case of `CC(=O)NC[C@H]1CN(c2ccc(-c3ccc(CO[C@@H]4COc5nc([N+](=O)[O-])cn5C4)cc3)c(F)c2)C(=O)O1` [Example 31, (S,S)—N-{3-[2-Fluoro-4′-(2-nitro-6,7-dihydro-5H-imidazo[2,1-b][1,3]oxazin-6-yloxymethyl)-biphenyl-4-yl]-2-oxo-oxazolidin-5-ylmethyl}-acetamide], the MIC in experiment [1] turned out to be 0.5 mg/L (≈ 0.951 µM); in experiment [2], 1 mg/L (≈ 1.9 µM); in experiment [3] it was 4 mg/L (≈ 7.61 µM). In experiment [2], the “activity against Staphylococcus aureus ATCC 29213 (in words)” value was “more potent than linezolid”. Further, in experiment [3], the “MIC against strain resistant” value stood at 4 micg/mL.
As for `CC(=O)NC[C@H]1CN(c2ccc(OCC3(C)Cn4cc([N+](=O)[O-])nc4O3)c(F)c2)C(=O)O1` (stereo partly shown) [Example 50, N-{3-[3-Fluoro-4-(2-methyl-6-nitro-2,3-dihydro-imidazo[2,1-b]oxazol-2-ylmethoxy)-phenyl]-2-oxo-oxazolidin-5-ylmethyl}-acetamide], the “M. tuberculosis H37Rv % survival at 10 ug/mL (Low O2)” value (from here on “M. tuberculosis H37Rv % survival”) in experiment [4] is given as 1.8%. Moreover, in experiment [1], the “fold less potent than PA-824, in vitro MIC” value came to 8 fold; the “fold less potent than linezolid, in vitro MIC” value was found to be 2 fold; the MIC turned out to be 4 mg/L (≈ 8.9 µM). The MIC in experiment [2] came out at 64 mg/L (≈ 142 µM).
Consider `CC(=O)NC[C@H]1CN(c2ccc(N3CCOCC3)c(F)c2)C(=O)O1` [Linezolid, linezolid, reference compound], for which the “M. tuberculosis H37Rv % survival” value in experiment [4] and in experiment [4] (listed as linezolid) was 28.2% in each case. For the same compound, the MIC is 2 mg/L (≈ 5.93 µM) in experiment [1], 2 mg/L (≈ 5.93 µM) in experiment [2] and 64 mg/L (≈ 190 µM) in experiment [3]. Further, in experiment [3], the “MIC against strain resistant” value was determined as 64 micg/mL.
As to `O=[N+]([O-])c1cn2c(n1)OC[C@@H](OCc1ccc(OC(F)(F)F)cc1)C2` [PA-824, reference compound], the “M. tuberculosis H37Rv % survival” value in experiment [4] is 3.6%. Moreover, the MIC in experiment [1] is 0.5 mg/L (≈ 1.39 µM); in experiment [2] it was above 64 mg/L; in experiment [3], above 64 mg/L.
